Data reported in patent US20210154188A1, “ALK5 INHIBITORS, CONJUGATES, AND USES THEREOF” (SILVERBACK THERAPEUTICS, INC., priority 2018, published 2021).

What was measured:
[1] = tested on: TGFb/SMAD Signaling Pathway SBE reporter cell line; assay: TGFb reporter assay (luciferase); assay type: cell-based; conditions: 5-6 h preincubation, then TGFb, 18 h, luminescence
Procedure: TGFb/SMAD Signaling Pathway SBE reporter cell line was obtained from BPS Bioscience. Cells were passed/expanded/stored in liquid nitrogen per supplier's instruction with the exception that growth media was changed to DMEM-C with Geneticin (DMEM supplemented with 10% fetal bovine serum, 1× NEAA, 1 mM Pyruvate, 2 mM glutamine, 50 μg/mL penicillin, 50 U/mL streptomycin and 400 ug/mL of Geneticin). The assay media was MEM supplemented with 0.5% fetal bovine serum, 1× NEAA, 1 mM Pyruvate, 50 μg/mL penicillin and 50 U/mL streptomycin.
Reporter cells were harvested from the tissue culture flasks by incubation in small quantity of Versene at room temperature for three to five minutes after the media in the flask was removed and cells rinsed with PBS. Cells were counted and diluted in the assay media at ˜0.8×10^6 cells/mL then 50 uL/well were added to 96-well assay plate. Test samples (at desired concentrations diluted in assay media) were added to assay plate containing the 50 uL/well of cells (or media only), 50 uL per well, and incubated for 5-6 hours at 37° C. in a 5% CO2 humidified incubator. After that time, 15 uL of TGFb diluted to 12.5 ng/mL in the assay media was added to the plate. Controls included TGFb titration (from 25 to 0 ng/mL) without inhibitors, and media only (without cells, inhibitor or TGFb). Plates were incubated at 37° C. in a 5% CO2 humidified incubator for 18 h. Luciferase substrate solution was subsequently added at 75 uL per well, incubated in dark with shaking at room temperature for 10 min, and luminescence was measured using a luminometer.

ALK5 = target: T1, ALK5 (Homo sapiens, UniProt P36897); assay: ALK5 enzyme inhibition assay (33P-ATP filter-binding, Reaction Biology Corp); assay type: biochemical; conditions: casein substrate 1 mg/mL, 10 uM ATP
T1 construct: purchased Reaction Biology Corp (Malvern, PA)
T1 sequence (P36897 34-503): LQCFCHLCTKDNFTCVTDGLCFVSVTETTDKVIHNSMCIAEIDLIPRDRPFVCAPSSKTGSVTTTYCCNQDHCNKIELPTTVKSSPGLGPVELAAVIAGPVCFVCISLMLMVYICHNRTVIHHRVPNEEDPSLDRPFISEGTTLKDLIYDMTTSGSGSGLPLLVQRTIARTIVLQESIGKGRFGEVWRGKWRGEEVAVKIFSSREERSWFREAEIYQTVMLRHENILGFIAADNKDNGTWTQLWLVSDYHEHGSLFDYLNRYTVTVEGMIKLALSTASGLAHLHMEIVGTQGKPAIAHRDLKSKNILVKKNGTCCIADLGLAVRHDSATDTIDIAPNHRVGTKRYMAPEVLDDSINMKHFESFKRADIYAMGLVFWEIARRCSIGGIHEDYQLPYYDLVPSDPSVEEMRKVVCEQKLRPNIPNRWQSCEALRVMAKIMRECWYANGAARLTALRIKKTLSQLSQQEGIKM
Procedure: ALK5 enzyme inhibition assays were performed by Reaction Biology Corp (Malvern, PA). 1 mg/mL of peptide subtrate (casein) and 10 uM ATP were prepared in a mixture of fresh reaction buffer. The kinase was delivered into the substrate solution which was gently mixed. Compounds in 100% DMSO were added to the kinase reaction mixture by Acoustic technology (Echo550; nanoliter range) and the mixture was incubated for 20 min at room temperature. ^33P-ATP (Specific activity 10 uCi/uL) was added into the reaction mixture to initiate the reaction and the reaction mixture was incubated for 2 hours at room temperature. Radioactivity was detected by filter-binding method and kinase activity data were expressed as the percent remaining kinase activity in test samples compared to vehicle (dimethyl sulfoxide) reactions. IC50 values and curve fits were obtained using Prism (GraphPad Software).

Row | IC50 [1] [nM] | IC50 (ALK5) [nM] | Compound
1 | 100 to 1000 | 1000 to 10000 | Cc1cccc(-c2nc(CNC3CC3)[nH]c2-c2ccc3ncnn3c2)n1 [Compound 1.7, N-((5-([1,2,4]triazolo[1,5-a]pyridin-6-yl)-4-(6-methylpyridin-2-yl)-1H-imidazol-2-yl)methyl)-cyclopropanamine]
2 | 100 to 1000 | 1000 to 10000 | Cc1cccc(-c2nc(CNC3CCC3)[nH]c2-c2ccc3ncnn3c2)n1 [Compound 1.10, 1-(5-([1,2,4]triazolo[1,5-a]pyridin-6-yl)-4-(6-methylpyridin-2-yl)-1H-imidazol-2-yl)-N-(cyclobutyl)methanamine]
3 | 10 to 100 | 100 to 1000 | Cc1cccc(-c2nc(CNCC3CCCCC3)[nH]c2-c2ccc3ncnn3c2)n1 [Compound 1.42, 1-(5-([1,2,4]triazolo[1,5-a]pyridin-6-yl)-4-(6-methylpyridin-2-yl)-1H-imidazol-2-yl)-N-(cyclohexylmethyl)methanamine]
